In this test the target is T1, SIRT1 (Homo sapiens, UniProt Q96EB6).
T1 sequence (Q96EB6 1-747): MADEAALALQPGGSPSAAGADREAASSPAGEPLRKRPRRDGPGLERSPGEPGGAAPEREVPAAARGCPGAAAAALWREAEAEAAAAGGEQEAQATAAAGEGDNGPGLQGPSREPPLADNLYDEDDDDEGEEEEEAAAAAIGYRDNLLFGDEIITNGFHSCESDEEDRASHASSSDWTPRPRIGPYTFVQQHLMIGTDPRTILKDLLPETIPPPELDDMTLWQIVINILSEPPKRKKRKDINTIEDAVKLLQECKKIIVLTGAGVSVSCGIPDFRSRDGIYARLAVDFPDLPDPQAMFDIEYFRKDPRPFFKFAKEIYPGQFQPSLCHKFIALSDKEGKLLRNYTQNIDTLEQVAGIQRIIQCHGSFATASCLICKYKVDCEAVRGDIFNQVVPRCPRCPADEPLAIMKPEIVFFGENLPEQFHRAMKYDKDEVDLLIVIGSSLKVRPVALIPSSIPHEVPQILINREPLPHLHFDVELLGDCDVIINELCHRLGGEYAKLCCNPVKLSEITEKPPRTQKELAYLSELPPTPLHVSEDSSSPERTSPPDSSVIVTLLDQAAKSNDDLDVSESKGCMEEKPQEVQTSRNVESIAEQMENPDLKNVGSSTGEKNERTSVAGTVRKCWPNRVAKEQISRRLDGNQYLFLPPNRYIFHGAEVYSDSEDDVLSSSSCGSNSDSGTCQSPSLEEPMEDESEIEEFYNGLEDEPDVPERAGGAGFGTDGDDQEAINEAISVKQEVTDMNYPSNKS
In words: TAMRA based mass spectrometry assay of SIRT1 activity. Particulars: TAMRA assay; for TAMRA EC1.5 (μM): concentration giving 150% activation of SIRT1; for Emax: percent maximum fold activation, read-out: TAMRA % Fold Act. Format: biochemical. The method, boiled down:
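Recombinant N-terminal His-tagged human SIRT1 (10 nM, E. coli) incubated 25 min at 25 °C with 0.5 μM 5TMR-labelled p53-derived acetyl-peptide and 120 μM βNAD+ in Tris-acetate pH 8 buffer with DTT and 0.05% BSA, compound at varying concentrations. Stopped with formic acid; deacetylated peptide or OAADPR measured by mass spectrometry relative to DMSO controls.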

Molecules are shown by their SMILES.

Regarding `Cc1cc(C)nc(NC(=O)c2cnc3ccc(-c4ccccc4C(F)(F)F)nn23)n1` [Compound 247], the “TAMRA EC1.5 (μM)” value is on record as “A (EC1.5<1 μM)” and the Emax is at least 350%.

Take `O=C(Nc1cnn2ccc(-c3ccccc3C(F)(F)F)nc12)c1cccnc1` [Compound 250]: the “TAMRA EC1.5 (μM)” value was “C (EC1.5>25 μM)” and the Emax was below 350%.

On to `O=C(Nc1cnn2ccc(-c3ccccc3C(F)(F)F)nc12)c1ncccn1` [Compound 252], for which the “TAMRA EC1.5 (μM)” value is “B (EC1.5 1-25 μM)” and the Emax was at least 350%.

For the molecule `O=C(Nc1cnn2ccc(-c3ccccc3C(F)(F)F)nc12)c1cnccn1` [Compound 253], the “TAMRA EC1.5 (μM)” value is “B (EC1.5 1-25 μM)” and the Emax was at least 350%.

Turning to `O=C(Nc1cnn2ccc(-c3ccccc3C(F)(F)F)nc12)c1cccc(N2CCOCC2)n1` [Compound 256], the “TAMRA EC1.5 (μM)” value was “A (EC1.5<1 μM)” and the Emax is at least 350%.

In the case of `O=C(Nc1cccc(OCC(F)(F)F)n1)c1cnc2ccc(-c3ccccc3F)nn12` [Compound 258], the “TAMRA EC1.5 (μM)” value is recorded as “C (EC1.5>25 μM)” and the Emax was below 350%.

In the case of `Cc1cc(NC(=O)c2cnc3ccc(-c4ccccc4Cl)nn23)ccn1` [Compound 259], the “TAMRA EC1.5 (μM)” value was “B (EC1.5 1-25 μM)” and the Emax was at least 350%.

For `O=C(Nc1cccc(OCC(F)(F)F)n1)c1cnc2ccc(-c3ccccc3Cl)nn12` [Compound 262], the “TAMRA EC1.5 (μM)” value is listed as “C (EC1.5>25 μM)” and the Emax was below 350%.

Consider `O=C(Nc1cccc(OCC(F)(F)F)n1)c1cnc2ccc(-c3ccccc3C(F)(F)F)nn12` [Compound 264], for which the “TAMRA EC1.5 (μM)” value is given as “B (EC1.5 1-25 μM)” and the Emax is at least 350%.

On to `O=C(Nc1ccccn1)c1cnn2ccc(-c3ccccc3C(F)(F)F)nc12` [Compound 265, N-(pyridin-2-yl)-5-(2-(trifluoromethyl)phenyl)pyrazolo[1,5-a]pyrimidine-3-carboxamide], for which the “TAMRA EC1.5 (μM)” value was “A (EC1.5<1 μM)” and the Emax was at least 350%.

With `O=C(Nc1ccncn1)c1cnn2ccc(-c3ccccc3C(F)(F)F)nc12` [Compound 268], the “TAMRA EC1.5 (μM)” value was “A (EC1.5<1 μM)” and the Emax was at least 350%.

In the case of `Cc1ccnc(NC(=O)c2cnc3ccc(-c4ccccc4C(F)(F)F)nn23)n1` [Compound 270], the “TAMRA EC1.5 (μM)” value was “A (EC1.5<1 μM)” and the Emax is at least 350%.

With `Cc1scnc1C(=O)Nc1cnc2ccc(-c3ccccc3C(F)(F)F)nn12` [Compound 271], the “TAMRA EC1.5 (μM)” value is “A (EC1.5<1 μM)” and the Emax was at least 350%.

As to `CC(C)c1nccc(C(=O)Nc2cnc3ccc(-c4ccccc4C(F)(F)F)nn23)n1` [Compound 274], the “TAMRA EC1.5 (μM)” value is given as “A (EC1.5<1 μM)” and the Emax was at least 350%.

As for `Cc1ccc(NC(=O)c2cnc3ccc(-c4ccccc4C(F)(F)F)nn23)nn1` [Compound 276], the “TAMRA EC1.5 (μM)” value is “A (EC1.5<1 μM)” and the Emax is at least 350%.

Take `Cc1cc(OCC2(C)COC2)nc(NC(=O)c2cnc3ccc(-c4ccccc4C(F)(F)F)nn23)n1` [Compound 277]: the “TAMRA EC1.5 (μM)” value is recorded as “A (EC1.5<1 μM)” and the Emax is at least 350%.

For the molecule `CC(CO)(CO)Oc1nccc(NC(=O)c2cnc3ccc(-c4ccccc4C(F)(F)F)nn23)n1` [Compound 278], the “TAMRA EC1.5 (μM)” value was “B (EC1.5 1-25 μM)” and the Emax was below 350%.

For `O=C(Nc1cnc2ccc(-c3ccccc3F)nn12)c1cnccn1` [Compound 280], the “TAMRA EC1.5 (μM)” value was “B (EC1.5 1-25 μM)” and the Emax was below 350%.

As to `O=C(Nc1cnc2ccc(-c3ccccc3F)nn12)c1ncccn1` [Compound 282], the “TAMRA EC1.5 (μM)” value is “B (EC1.5 1-25 μM)” and the Emax is below 350%.

With `O=C(Nc1ccnc(OCC(O)CO)c1)c1cnc2ccc(-c3ccccc3Cl)nn12` (stereo not shown) [Compound 283], the “TAMRA EC1.5 (μM)” value is “A (EC1.5<1 μM)” and the Emax is below 350%.

As for `Cc1cc(OCC(O)CO)nc(NC(=O)c2cnc3ccc(-c4ccccc4F)nn23)n1` (stereo not shown) [Compound 286], the “TAMRA EC1.5 (μM)” value is given as “B (EC1.5 1-25 μM)” and the Emax was below 350%.

Consider `O=C(Nc1cnc2ccc(-c3ccccc3Cl)nn12)c1cnccn1` [Compound 288], for which the “TAMRA EC1.5 (μM)” value is reported as “B (EC1.5 1-25 μM)” and the Emax is below 350%.

For the molecule `O=C(Nc1cnc2ccc(-c3ccccc3Cl)nn12)c1ccncn1` [Compound 289], the “TAMRA EC1.5 (μM)” value was “B (EC1.5 1-25 μM)” and the Emax is below 350%.

In the case of `Cc1nc(C(=O)Nc2cnc3ccc(-c4ccccc4Cl)nn23)cs1` [Compound 292], the “TAMRA EC1.5 (μM)” value is “A (EC1.5<1 μM)” and the Emax was at least 350%.

For `O=C(Nc1cnc2ccc(-c3ccccc3Cl)nn12)c1nccs1` [Compound 294], the “TAMRA EC1.5 (μM)” value is recorded as “B (EC1.5 1-25 μM)” and the Emax was below 350%.

Consider `CC1(COc2cccc(NC(=O)c3cnc4ccc(-c5ccccc5C(F)(F)F)nn34)n2)COC1` [Compound 295], for which the “TAMRA EC1.5 (μM)” value is “A (EC1.5<1 μM)” and the Emax is at least 350%.

As for `O=C(Nc1cnc2ccc(-c3ccccc3F)nn12)c1cscn1` [Compound 298], the “TAMRA EC1.5 (μM)” value is listed as “B (EC1.5 1-25 μM)” and the Emax was below 350%.

Consider `Cc1nc(C(=O)Nc2cnc3ccc(-c4ccccc4F)nn23)cs1` [Compound 299], for which the “TAMRA EC1.5 (μM)” value is “B (EC1.5 1-25 μM)” and the Emax is below 350%.

Consider `Cc1nc(C(=O)Nc2cnc3ccc(-c4ccccc4F)nn23)c(C)s1` [Compound 300], for which the “TAMRA EC1.5 (μM)” value is given as “A (EC1.5<1 μM)” and the Emax is below 350%.

`O=C(Nc1cnc2ccc(-c3ccccc3F)nn12)c1cccc(N2CCOCC2)n1` [Compound 301]: the “TAMRA EC1.5 (μM)” value is “A (EC1.5<1 μM)” and the Emax was at least 350%.

Take `O=C(Nc1cnc2ccc(-c3ccccc3F)nn12)c1cccc(N2CCC2)n1` [Compound 302]: the “TAMRA EC1.5 (μM)” value is listed as “A (EC1.5<1 μM)” and the Emax is at least 350%.

Regarding `Cc1cnc(C(=O)Nc2cnc3ccc(-c4ccccc4F)nn23)s1` [Compound 304], the “TAMRA EC1.5 (μM)” value was “B (EC1.5 1-25 μM)” and the Emax is below 350%.

For `Cc1cnc(C(=O)Nc2cnc3ccc(-c4ccccc4Cl)nn23)s1` [Compound 306], the “TAMRA EC1.5 (μM)” value is reported as “B (EC1.5 1-25 μM)” and the Emax was at least 350%.

For `O=C(Nc1cnc2ccc(-c3ccccc3Cl)nn12)c1cccc(N2CCOCC2)n1` [Compound 307], the “TAMRA EC1.5 (μM)” value is “A (EC1.5<1 μM)” and the Emax is at least 350%.

Consider `Cc1cc(OCC(F)(F)F)nc(NC(=O)c2cnc3ccc(-c4ccccc4C(F)(F)F)nn23)n1` [Compound 310], for which the “TAMRA EC1.5 (μM)” value is on record as “A (EC1.5<1 μM)” and the Emax was at least 350%.

Turning to `O=C(Nc1cnc2ccc(-c3ccccc3OC(F)(F)F)nn12)c1ccccn1` [Compound 312], the “TAMRA EC1.5 (μM)” value was “A (EC1.5<1 μM)” and the Emax was at least 350%.

As for `O=C(Nc1cnc2ccc(-c3ccccc3OC(F)(F)F)nn12)c1cnccn1` [Compound 313], the “TAMRA EC1.5 (μM)” value was “A (EC1.5<1 μM)” and the Emax is at least 350%.

For the molecule `O=C(Nc1cnc2ccc(-c3ccccc3OC(F)(F)F)nn12)c1cscn1` [Compound 316], the “TAMRA EC1.5 (μM)” value is on record as “A (EC1.5<1 μM)” and the Emax is at least 350%.

(Values after US9957271B2, “Substituted bicyclic aza-heterocycles and analogues as sirtuin modulators” (GlaxoSmithKline, LLC, priority 2012, dated 2018).)
